Like-named read-outs stand apart in the source and are kept apart here.
Columns and labels:
[1] = molecular target: GST-tagged wild-type human CRBN protein (Homo sapiens (Human), UniProt Q96SW2); assay: Cereblon Binding Assay (Cisbio Cereblon Binding Kit, TR-FRET); conditions: about 3 hours at room temperature
Experimental: (§1) The binding to cereblon (CRBN) is determined using the Cereblon Binding Kit (Cisbio, #64BDCRBNPEG) following the manufacturer's instruction. Briefly, serially diluted compounds are incubated with GST-tagged wild-type human CRBN protein, XL665-labelled Thalidomide and Europium Cryptate labelled GST antibody.
as §1, with “(CRBN) was” for “(CRBN) is”, “compounds were” for “compounds are”, “GST antibody at room temperature for about 3 hours.” for “GST antibody.”

IKZF2 = IKZF2 (Homo sapiens (Human), UniProt Q96SW2+Q9UKS7); assay: IKZF2 HiBiT Assay (Jurkat-IKZF2-HiBiT cell line); assay type: cell-based; conditions: for DC50: read-out: HiBit assay degradation analysis DC50; for Dmax: read-out: HiBit assay degradation analysis Dmax
Method in brief: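 Jurkat cells carrying HiBiT-tagged IKZF2 were exposed to serially diluted compound for 24 h at 37 °C. Remaining IKZF2 was measured by Nano-Glo HiBiT lytic luminescence after 10-20 min at room temperature. Signal was normalized to DMSO, and IC50 came from a four-parameter variable-slope fit.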

[2] = Jurkat-IKZF2-HiBiT cells, 24 hours

Sequence of GST-tagged wild-type human CRBN protein (Q96SW2 whole entry): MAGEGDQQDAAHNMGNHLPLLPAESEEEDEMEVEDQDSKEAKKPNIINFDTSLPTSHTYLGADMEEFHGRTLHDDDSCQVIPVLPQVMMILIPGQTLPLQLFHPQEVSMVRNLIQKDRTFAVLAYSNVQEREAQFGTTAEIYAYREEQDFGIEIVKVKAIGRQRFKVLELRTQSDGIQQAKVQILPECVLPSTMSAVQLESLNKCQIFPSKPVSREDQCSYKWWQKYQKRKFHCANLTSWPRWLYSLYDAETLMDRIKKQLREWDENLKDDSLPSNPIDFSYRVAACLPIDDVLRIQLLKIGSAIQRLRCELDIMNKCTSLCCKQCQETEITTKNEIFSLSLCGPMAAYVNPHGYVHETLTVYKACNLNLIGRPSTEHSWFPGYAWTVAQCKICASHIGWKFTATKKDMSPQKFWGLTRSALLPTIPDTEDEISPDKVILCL
Sequence of IKZF2 (Q9UKS7 whole entry): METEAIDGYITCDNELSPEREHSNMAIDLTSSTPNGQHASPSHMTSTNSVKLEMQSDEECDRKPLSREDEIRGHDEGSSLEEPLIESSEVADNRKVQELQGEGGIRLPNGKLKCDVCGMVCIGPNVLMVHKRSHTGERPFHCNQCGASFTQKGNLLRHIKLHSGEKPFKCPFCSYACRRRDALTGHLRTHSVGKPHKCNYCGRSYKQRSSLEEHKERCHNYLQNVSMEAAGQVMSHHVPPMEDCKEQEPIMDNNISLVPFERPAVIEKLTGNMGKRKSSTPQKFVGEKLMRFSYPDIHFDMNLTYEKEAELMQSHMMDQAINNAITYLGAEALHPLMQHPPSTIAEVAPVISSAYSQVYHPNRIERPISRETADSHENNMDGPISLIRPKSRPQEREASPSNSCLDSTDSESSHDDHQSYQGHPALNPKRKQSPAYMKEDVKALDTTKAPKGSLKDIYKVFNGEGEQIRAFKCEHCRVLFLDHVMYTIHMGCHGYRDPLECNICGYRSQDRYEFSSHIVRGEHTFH
Sequence of IKZF2 (Q96SW2 whole entry): as the sequence (Q96SW2 whole entry) above
Sequence of IKZF2 (Q16531 whole entry partner): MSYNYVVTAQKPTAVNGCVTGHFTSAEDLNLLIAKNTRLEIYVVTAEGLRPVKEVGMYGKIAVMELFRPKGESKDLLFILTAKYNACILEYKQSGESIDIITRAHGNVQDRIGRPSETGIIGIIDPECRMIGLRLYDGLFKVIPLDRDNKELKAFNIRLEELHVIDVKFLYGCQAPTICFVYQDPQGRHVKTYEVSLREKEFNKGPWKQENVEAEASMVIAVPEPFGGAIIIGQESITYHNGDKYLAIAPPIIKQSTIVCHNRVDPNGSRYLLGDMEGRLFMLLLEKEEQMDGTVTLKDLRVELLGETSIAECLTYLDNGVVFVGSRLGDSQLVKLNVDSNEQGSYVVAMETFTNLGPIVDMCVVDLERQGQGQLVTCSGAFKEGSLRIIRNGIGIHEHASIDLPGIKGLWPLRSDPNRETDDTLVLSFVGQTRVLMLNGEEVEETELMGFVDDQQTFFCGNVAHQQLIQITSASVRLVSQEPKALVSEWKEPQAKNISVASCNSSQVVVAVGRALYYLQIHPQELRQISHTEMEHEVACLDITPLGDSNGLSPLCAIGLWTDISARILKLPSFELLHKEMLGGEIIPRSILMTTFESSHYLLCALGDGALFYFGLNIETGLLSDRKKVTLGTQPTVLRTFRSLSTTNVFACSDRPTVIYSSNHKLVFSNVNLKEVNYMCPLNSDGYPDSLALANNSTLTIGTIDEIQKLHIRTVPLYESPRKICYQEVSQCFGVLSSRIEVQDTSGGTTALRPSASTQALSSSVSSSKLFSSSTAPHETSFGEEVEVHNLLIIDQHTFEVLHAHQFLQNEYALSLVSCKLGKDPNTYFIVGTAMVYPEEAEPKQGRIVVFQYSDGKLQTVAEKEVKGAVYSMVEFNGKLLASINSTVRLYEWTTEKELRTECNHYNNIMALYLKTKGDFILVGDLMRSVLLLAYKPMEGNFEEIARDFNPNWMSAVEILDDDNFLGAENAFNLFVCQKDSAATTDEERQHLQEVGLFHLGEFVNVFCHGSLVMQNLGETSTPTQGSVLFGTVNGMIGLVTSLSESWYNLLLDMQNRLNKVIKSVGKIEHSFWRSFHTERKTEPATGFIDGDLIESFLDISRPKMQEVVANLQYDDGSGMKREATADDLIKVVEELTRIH

| Compound | IC50 [1] [nM] | DC50 (IKZF2; [2]) [nM] | Dmax (IKZF2; [2]) [%] | Dmax (IKZF2) [%] |
| --- | --- | --- | --- | --- |
| O=C1CCC(N2Cc3c(ccc4c3OCC43CCN(Cc4ccc5c(c4)C(=O)NC5)CC3)C2=O)C(=O)N1 (stereo not drawn) [Compound A122, 3-(6-oxo-1′-((3-oxoisoindolin-5-yl)methyl)-6,8-dihydro-2H,7H-spiro[furo[2,3-e]isoindole-3,4′-piperidin]-7-yl)piperidine-2,6-dione] | 100 to 1000 | 50 to 200 | 60 to 80 | – |
| O=C1CCC(N2Cc3c(ccc4c3OCC43CCN(Cc4ccc5c(c4)NC(=O)C5)CC3)C2=O)C(=O)N1 (stereo not drawn) [Compound A131, 3-(6-oxo-1′-((2-oxoindolin-6-yl)methyl)-6,8-dihydro-2H,7H-spiro[furo[2,3-e]isoindole-3,4′-piperidin]-7-yl)piperidine-2,6-dione] | 100 to 1000 | 50 to 200 | 60 to 80 | – |
| O=C1CCC(N2Cc3c(ccc4c3OCC43CCN(Cc4ccccc4)CC3)C2=O)C(=O)N1 (stereo not drawn) [Compound A8, 3-(1′-benzyl-6-oxo-6,8-dihydro-2H,7H-spiro[furo[2,3-e]isoindole-3,4′-piperidin]-7-yl)piperidine-2,6-dione] | 100 to 1000 | 200 to 500 | 40 to 60 | – |
| Cn1ccc2ccc(CN3CCC4(CC3)COc3c4ccc4c3CN(C3CCC(=O)NC3=O)C4=O)cc21 (stereo not drawn) [Compound A130, 3-(1′-((1-methyl-1H-indol-6-yl)methyl)-6-oxo-6,8-dihydro-2H,7H-spiro[furo[2,3-e]isoindole-3,4′-piperidin]-7-yl)piperidine-2,6-dione] | 100 to 1000 | < 50 | 60 to 80 | – |
| CCn1cc(-c2cccc(CN3CCC4(CC3)COc3c4ccc4c3CN(C3CCC(=O)NC3=O)C4=O)c2)cn1 (stereo not drawn) [Compound A145, 3-(1′-(3-(1-ethyl-1H-pyrazol-4-yl)benzyl)-6-oxo-6,8-dihydro-2H,7H-spiro[furo[2,3-e]isoindole-3,4′-piperidin]-7-yl)piperidine-2,6-dione] | 10 to 100 | < 50 | 60 to 80 | – |
| O=C1CCC(N2Cc3c(ccc4c3OCC43CCN(Cc4cc(Cl)cc5[nH]ncc45)CC3)C2=O)C(=O)N1 (stereo not drawn) [Compound A128, 3-(1′-((6-chloro-1H-indazol-4-yl)methyl)-6-oxo-6,8-dihydro-2H,7H-spiro[furo[2,3-e]isoindole-3,4′-piperidin]-7-yl)piperidine-2,6-dione] | 100 to 1000 | 50 to 200 | 40 to 60 | – |
| O=C1CCC(N2Cc3c(ccc4c3OCC43CCN(Cc4ccc5ccoc5c4)CC3)C2=O)C(=O)N1 (stereo not drawn) [Compound A116, 3-(1′-(benzofuran-6-ylmethyl)-6-oxo-6,8-dihydro-2H,7H-spiro[furo[2,3-e]isoindole-3,4′-piperidin]-7-yl)piperidine-2,6-dione] | 100 to 1000 | < 50 | 60 to 80 | – |
| O=C1CCC(N2Cc3c(ccc4c3OCC43CCN(Cc4cccc(-n5cncn5)c4)CC3)C2=O)C(=O)N1 (stereo not drawn) [Compound A124, 3-(1′-(3-(1H-1,2,4-triazol-1-yl)benzyl)-6-oxo-6,8-dihydro-2H,7H-spiro[furo[2,3-e]isoindole-3,4′-piperidin]-7-yl)piperidine-2,6-dione] | 100 to 1000 | 200 to 500 | 40 to 60 | – |
| Cn1cc(-c2cccc(CN3CCC4(CC3)COc3c4ccc4c3CN(C3CCC(=O)NC3=O)C4=O)c2)cn1 (stereo not drawn) [Compound A105, 3-(1′-(3-(1-methyl-1H-pyrazol-4-yl)benzyl)-6-oxo-6,8-dihydro-2H,7H-spiro[furo[2,3-e]isoindole-3,4′-piperidin]-7-yl)piperidine-2,6-dione] | 100 to 1000 | < 50 | 60 to 80 | – |
| O=C1CCC(N2Cc3c(ccc4c3OCC43CCN(Cc4cccc(CO)c4)CC3)C2=O)C(=O)N1 (stereo not drawn) [Compound A98, 3-(1′-(3-(hydroxymethyl)benzyl)-6-oxo-6,8-dihydro-2H,7H-spiro[furo[2,3-e]isoindole-3,4′-piperidin]-7-yl)piperidine-2,6-dione] | 100 to 1000 | 50 to 200 | 60 to 80 | – |
| Cn1ccc(-c2cccc(CN3CCC4(CC3)COc3c4ccc4c3CN(C3CCC(=O)NC3=O)C4=O)c2)n1 (stereo not drawn) [Compound A134, 3-(1′-(3-(1-methyl-1H-pyrazol-3-yl)benzyl)-6-oxo-6,8-dihydro-2H,7H-spiro[furo[2,3-e]isoindole-3,4′-piperidin]-7-yl)piperidine-2,6-dione] | 100 to 1000 | < 50 | 60 to 80 | – |
| Cc1ccc(CN2CCC3(CC2)COc2c3ccc3c2CN(C2CCC(=O)NC2=O)C3=O)cc1 (stereo not drawn) [Compound A15, 3-(1′-(4-methylbenzyl)-6-oxo-6,8-dihydro-2H,7H-spiro[furo[2,3-e]isoindole-3,4′-piperidin]-7-yl)piperidine-2,6-dione] | 100 to 1000 | 200 to 500 | 40 to 60 | – |
| O=C1CCC(N2Cc3c(ccc4c3OCC43CCN(Cc4cc(Br)cc5[nH]ncc45)CC3)C2=O)C(=O)N1 (stereo not drawn) [Compound A127, 3-(1′-((6-bromo-1H-indazol-4-yl)methyl)-6-oxo-6,8-dihydro-2H,7H-spiro[furo[2,3-e]isoindole-3,4′-piperidin]-7-yl)piperidine-2,6-dione] | 100 to 1000 | < 50 | 40 to 60 | – |
| O=C1CCC(N2Cc3c(ccc4c3OCC43CCN(Cc4cccc5cn[nH]c45)CC3)C2=O)C(=O)N1 (stereo not drawn) [Compound A52, 3-(1′-((1H-indazol-7-yl)methyl)-6-oxo-6,8-dihydro-2H,7H-spiro[furo[2,3-e]isoindole-3,4′-piperidin]-7-yl)piperidine-2,6-dione] | 10 to 100 | < 50 | 60 to 80 | – |
| O=C1CCC(N2Cc3c(ccc4c3OCC43CCN(Cc4cccc5[nH]ccc45)CC3)C2=O)C(=O)N1 (stereo not drawn) [Compound A87, 3-(1′-((1H-indol-4-yl)methyl)-6-oxo-6,8-dihydro-2H,7H-spiro[furo[2,3-e]isoindole-3,4′-piperidin]-7-yl)piperidine-2,6-dione] | 100 to 1000 | < 50 | > 80 | – |
| Cc1ccc(CN2CCC3(CCOc4c3ccc3c4CN(C4CCC(=O)NC4=O)C3=O)CC2)cc1 (stereo not drawn) [Compound A12, 3-(1-(4-methylbenzyl)-7′-oxo-2′,3′,7′,9′-tetrahydro-8′H-spiro[piperidine-4,4′-pyrano[2,3-e]isoindol]-8′-yl)piperidine-2,6-dione] | 10 to 100 | > 500 | < 40 | – |
| CCc1ccc(CN2CCC3(CCOc4c3ccc3c4CN(C4CCC(=O)NC4=O)C3=O)CC2)cc1 (stereo not drawn) [Compound A11, 3-(1-(4-ethylbenzyl)-7′-oxo-2′,3′,7′,9′-tetrahydro-8′H-spiro[piperidine-4,4′-pyrano[2,3-e]isoindol]-8′-yl)piperidine-2,6-dione] | 10 to 100 | > 500 | 40 to 60 | – |
| O=C1CCC(N2Cc3c(ccc4c3OCC43CCN(Cc4cccc(-c5cc[nH]n5)c4)CC3)C2=O)C(=O)N1 (stereo not drawn) [Compound A160, 3-(1′-(3-(1H-pyrazol-3-yl)benzyl)-6-oxo-6,8-dihydro-2H,7H-spiro[furo[2,3-e]isoindole-3,4′-piperidin]-7-yl)piperidine-2,6-dione] | 10 to 100 | < 50 | 60 to 80 | – |
| O=C1CCC(N2Cc3c(ccc4c3OCC43CCNCC3)C2=O)C(=O)N1 (stereo not drawn) [Compound A1, 3-(6-oxo-6,8-dihydro-2H,7H-spiro[furo[2,3-e]isoindole-3,4′-piperidin]-7-yl)piperidine-2,6-dione] | > 1000 | > 500 | – | < 40 |
| O=C1CCC(N2Cc3c(ccc4c3OCC43CCN(Cc4cccc5ccccc45)CC3)C2=O)C(=O)N1 (stereo not drawn) [Compound A27, 3-(1′-(naphthalen-1-ylmethyl)-6-oxo-6,8-dihydro-2H,7H-spiro[furo[2,3-e]isoindole-3,4′-piperidin]-7-yl)piperidine-2,6-dione] | 100 to 1000 | < 50 | > 80 | – |
| O=C1CCC(N2Cc3c(ccc4c3OCC43CCN(Cc4ccc(F)c(F)c4)CC3)C2=O)C(=O)N1 (stereo not drawn) [Compound A5, 3-(1′-(3,4-difluorobenzyl)-6-oxo-6,8-dihydro-2H,7H-spiro[furo[2,3-e]isoindole-3,4′-piperidin]-7-yl)piperidine-2,6-dione] | 100 to 1000 | > 500 | < 40 | – |
| Cn1cc2ccc(CN3CCC4(CC3)COc3c4ccc4c3CN(C3CCC(=O)NC3=O)C4=O)cc2n1 (stereo not drawn) [Compound A69, 3-(1′-((2-methyl-2H-indazol-6-yl)methyl)-6-oxo-6,8-dihydro-2H,7H-spiro[furo[2,3-e]isoindole-3,4′-piperidin]-7-yl)piperidine-2,6-dione] | 100 to 1000 | < 50 | 60 to 80 | – |
